Results published in patent publication US20240366649A1, “4-ETHYNYL-3-HYDROXY-TETRAHYDROFURANYL-ADENINE PHOSPHORAMIDATES AND RELATED COMPOUNDS AND THEIR USE IN TREATING MEDICAL CONDITIONS” (ROME THERAPEUTICS, INC., priority 2021, published 2024).

Key:
[1] = system: Ovarian cancer SW756 cells; assay: Cancer cell viability assay with 3D cell colonies (CellTiter-Glo), SW756; format: cell-based; conditions: Homo sapiens, 168 h; SW756, 3D methylcellulose colonies, 7 days
Experimental: (§1) Cancer cell lines were cultured in the following media: • Ovarian cancer OVCAR-8 cells—RPMI media containing 10% FBS • Ovarian cancer SK-OV-3 cells—McCoy's 5a media containing 10% FBS • Ovarian cancer SW756 cells—L-15 (100% air)+10% FBS • Esophageal cancer TE-1 cells—RPMI-1640+10% FBS • Esophageal cancer KYSE-410 cells—RPMI-1640+5˜10% FBS • Esophageal cancer KYSE-70 cells—RPMI-1640+10% h.i.FBS. • Pharyngeal cancer FaDu cells—MEM+0.01 mM NEAA+10% FBS
(§2) Cell colony formation was tested using a 3D methylcellulose-based CellTiter-Glo (CTG) viability assay (Cat. No: G7573, Promega). Briefly, cells were inoculated into 96-well plates (at 1,500 cells per well) into a solution of 0.65% methylcellulose in growth media and incubated overnight at 37° C. in 5% CO2. The next day, serially diluted test compound (islatravir, 4′-ethynyl-2-fluoro-2′-deoxyadenosine) or positive control (cisplatin, Cat. No. 6J015A89, Qilu Pharma) were added at the indicated concentrations, and the cells were incubated for 7 days. On day seven, 100 μL of CTG reagent was added, and the plates were incubated at room temperature for 20 min. Luminescence was read on an Envision Multi Label Reader according to manufacturer's instructions. IC50 values were determined using the following calculation: […]

[2] = system: Esophageal cancer TE-1 cells; assay: Cancer cell viability assay with 3D cell colonies (CellTiter-Glo), TE-1; format: cell-based; conditions: Homo sapiens, 168 h; TE-1, 3D methylcellulose colonies, 7 days
Experimental: as §1, §2

[3] = system: Esophageal cancer KYSE-410 cells; assay: Cancer cell viability assay with 3D cell colonies (CellTiter-Glo), KYSE-410; format: cell-based; conditions: Homo sapiens, 168 h; KYSE-410, 3D methylcellulose colonies, 7 days
Experimental: as §1, §2

[4] = system: Pharyngeal cancer FaDu cells; assay: Cancer cell viability assay with 3D cell colonies (CellTiter-Glo), FaDu; format: cell-based; conditions: Homo sapiens, 168 h, 3D methylcellulose colonies, 7 days
Experimental: as §1, §2

[5] = system: interferon-stimulated gene (ISG) expression; assay: In vivo decitabine challenge model; set-up: species or system C57BL/6 mice; conditions: mice; decitabine i.p. 5 mg/kg and islatravir p.o. 0.6-6.0 mg/kg once a day Day 0 to Day 4; IFIT2 v. GAPDH
Experimental: Twenty 9-11 week old C57BL/6 mice were acclimated to the lab for at least 5 days. Islatravir (4′-ethynyl-2-fluoro-2′-deoxyadenosine) was prepared in a 0.5% methylcellulose solution for p.o. administration. Decitabine (Sigma) was dissolved in sterile PBS (pH 7.4) and dosed within 30 minutes of preparation of the solution. Doses of both islatravir and decitabine were administered once a day, every day from Day 0 to Day 4.
On Day 0, mice were split into four groups of five mice and given their first dose of decitabine (i.p., 5 mg/kg) and […]. Dosing groups were:
Decitabine and islatravir were administered daily from Day 0 to Day 4. All mice were euthanized 1 hour after the last dose administration on Day 4. Spleens, liver, and terminal colon were collected, along with plasma from each animal. The fold changes in interferon-stimulated gene (ISG) expression was calculated by first normalizing to GAPDH gene using the Delta CT method. The CT (gene of interest)−CT (reference gene) was calculated to generate a delta CT for all samples. The fold change was then calculated by taking the […](Delta CT(control)−Delta CT (experimental). The control in this example was the PBS control animal group. The Taqman duplex assay (Thermo Fisher 4331182 and 4448489) was used according to the manufacturer's instructions to determine levels of GAPDH v. IFIT2.

[6] = target: LINE1 reverse transcriptase (Homo sapiens, UniProt O00370); assay: Stable artificial-intron Cis LINE1 reporter assay; format: cell-based; set-up: expressed in transfected cells; conditions: HeLa L1 artificial-intron reporter cells, doxycycline-induced, 72 h, Firefly luciferase activity
Sequence of LINE1 reverse transcriptase (O00370 whole entry, looked up): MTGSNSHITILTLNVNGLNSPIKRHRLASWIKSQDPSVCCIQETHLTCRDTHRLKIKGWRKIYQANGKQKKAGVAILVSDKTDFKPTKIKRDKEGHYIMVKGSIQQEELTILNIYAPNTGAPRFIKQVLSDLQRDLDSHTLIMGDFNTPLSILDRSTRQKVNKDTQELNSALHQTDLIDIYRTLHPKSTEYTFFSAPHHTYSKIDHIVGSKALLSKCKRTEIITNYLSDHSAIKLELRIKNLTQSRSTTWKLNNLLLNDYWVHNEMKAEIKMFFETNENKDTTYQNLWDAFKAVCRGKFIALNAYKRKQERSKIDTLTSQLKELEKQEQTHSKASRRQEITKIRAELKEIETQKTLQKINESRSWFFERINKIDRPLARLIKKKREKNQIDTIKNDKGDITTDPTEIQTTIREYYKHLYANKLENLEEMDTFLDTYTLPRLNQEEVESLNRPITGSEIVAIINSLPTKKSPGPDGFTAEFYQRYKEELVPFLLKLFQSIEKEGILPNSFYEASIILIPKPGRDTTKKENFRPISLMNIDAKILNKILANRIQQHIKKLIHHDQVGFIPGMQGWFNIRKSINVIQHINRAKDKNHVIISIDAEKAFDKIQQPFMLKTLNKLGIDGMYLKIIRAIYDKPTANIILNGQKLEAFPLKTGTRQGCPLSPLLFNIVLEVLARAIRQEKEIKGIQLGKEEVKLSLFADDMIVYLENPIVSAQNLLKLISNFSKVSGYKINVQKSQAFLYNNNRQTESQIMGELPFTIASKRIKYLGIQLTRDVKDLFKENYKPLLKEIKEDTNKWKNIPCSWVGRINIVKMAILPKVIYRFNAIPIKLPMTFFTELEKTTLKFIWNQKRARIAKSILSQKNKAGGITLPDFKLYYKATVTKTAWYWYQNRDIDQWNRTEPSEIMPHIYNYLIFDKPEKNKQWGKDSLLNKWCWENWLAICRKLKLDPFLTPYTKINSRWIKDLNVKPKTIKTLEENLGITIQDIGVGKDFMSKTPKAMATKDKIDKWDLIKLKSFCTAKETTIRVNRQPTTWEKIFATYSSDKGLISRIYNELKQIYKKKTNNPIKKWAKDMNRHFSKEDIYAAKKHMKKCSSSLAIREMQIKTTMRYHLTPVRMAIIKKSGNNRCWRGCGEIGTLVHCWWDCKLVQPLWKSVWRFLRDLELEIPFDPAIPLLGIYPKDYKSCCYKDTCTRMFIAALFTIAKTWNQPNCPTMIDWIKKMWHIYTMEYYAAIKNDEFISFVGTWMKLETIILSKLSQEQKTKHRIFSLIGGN
Text: A stable HeLa Tet-On 3G (Takara, cat no 631183) cell line expressing a bi-directional inducible LINE1 construct was generated as described in Xie, Y. et al. “Cell division promotes efficient retrotransposition in a stable L1 reporter cell line,” Mobile DNA (2013) 4:10. Single cell clones were screened for high Luciferase expression and the highest expression Firefly expressing clone was chosen for compound testing.
Test compounds were serially diluted in DMSO and spotted in 96-well plates. Subsequently the HeLa L1 artificial-intron reporter cells were plated into the compound-containing wells (8,000 cells/well), and the cells were induced for reporter expression with doxycycline (Sigma cat no D9891) at a final concentration of 500 ng/mL. Luminescence was measured 72 h after plating using the Dual-Glo Luciferase Assay System (Promega cat no E2940) following the manufacturer's instructions. The Firefly Luciferase activity (normalized against its activity in a control well without test compound) was used to report LINE1 activity.

IC50 [1]: > 30 µM
IC50 [2]: ≤ 10 µM
IC50 [3]: > 30 µM
IC50 [4]: 10 to 30 µM
IC50 [6]: ≤ 0.05 µM
Compound: C#C[C@]1(CO)O[C@@H](n2cnc3c(N)nc(F)nc32)C[C@@H]1O [islatravir, 4′-ethynyl-2-fluoro-2′-deoxyadenosine]
interferon-stimulated gene (ISG) response [5]: showed the change in ISG response
